The record followed here is PubChem BioAssay (NCI).

Each structure is given as a SMILES string.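 Briefly, cells in 96-well plates were exposed to five compound concentrations for 48 h, and endpoints were estimated by linear interpolation. TGI is the concentration that stops growth completely.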 A value given as a limit tells only on which side of the number the result lay.

Some test systems named below: IGROV1 ovarian; SF-295 CNS; M14 melanoma; OVCAR-8 ovarian; RPMI-8226 leukemia; SN12C renal; NCI-H23 lung; SNB-19 CNS; SNB-75 CNS; NCI-H460 lung; TK-10 renal; HT29 colon; OVCAR-4 ovarian; PC-3 prostate.
Holding throughout (assay): NCI tumour cell line growth inhibition, 48 h

Take `C[N+](C)(C)Cc1c(CC#N)[nH]c2ccccc12`: the TGI in the experiment on IGROV1 ovarian, in the experiment on SF-295 CNS, in the experiment on M14 melanoma, in the experiment with OVCAR-8 ovarian, in the experiment on RPMI-8226 leukemia and in the experiment with SN12C renal was over 100 µM throughout. In addition, the TGI in the experiment on NCI-H23 lung, with SNB-19 CNS, in the experiment with SNB-75 CNS, in the experiment on NCI-H460 lung, in the experiment on TK-10 renal and in the experiment with HT29 colon was over 100 µM throughout. Also, the TGI with OVCAR-4 ovarian is over 100 µM.

On to `CC(C)[Si](OCC1CC(C[C@H]2CC(C[C@H]3C[C@@H](CO[Si](C(C)C)(C(C)C)C(C)C)OC(C)(C)O3)OC(C)(C)O2)OC(C)(C)O1)(C(C)C)C(C)C` (stereo partly drawn), for which the TGI in the experiment on IGROV1 ovarian, in the experiment on SF-295 CNS, in the experiment with M14 melanoma, in the experiment on OVCAR-8 ovarian, with RPMI-8226 leukemia and in the experiment on NCI-H23 lung was over 100 µM throughout. The TGI with SNB-19 CNS, in the experiment on SNB-75 CNS, in the experiment on NCI-H460 lung, with TK-10 renal, in the experiment with HT29 colon and in the experiment on OVCAR-4 ovarian was over 100 µM each time.

Regarding `O=c1[nH]c(=O)n(C2CC(O)C(CO)O2)cc1C#Cc1cc(C(F)(F)F)cc(C(F)(F)F)c1` (stereo not drawn), the TGI in the experiment with IGROV1 ovarian is over 100 µM; in the experiment on SF-295 CNS, over 100 µM; in the experiment with M14 melanoma, over 46.5 µM; with OVCAR-8 ovarian, over 100 µM; in the experiment with RPMI-8226 leukemia, over 100 µM; in the experiment with SN12C renal, over 100 µM. For the same compound, the TGI in the experiment with NCI-H23 lung was over 89.3 µM; in the experiment on SNB-19 CNS it was over 100 µM; with SNB-75 CNS it was over 67.1 µM; in the experiment with NCI-H460 lung, over 100 µM; in the experiment on TK-10 renal, over 100 µM; in the experiment with HT29 colon, over 51.9 µM. The compound further registered a TGI in the experiment on OVCAR-4 ovarian of over 100 µM.

Take `COc1cc2c(oc(=O)c3cc4ccoc4c(OC)c32)c2cccc(O)c12`: the TGI in the experiment on IGROV1 ovarian, with SF-295 CNS, in the experiment with M14 melanoma, with OVCAR-8 ovarian, in the experiment on RPMI-8226 leukemia and in the experiment on SN12C renal was over 100 µM throughout. Besides, the TGI with NCI-H23 lung, in the experiment on SNB-19 CNS, in the experiment with SNB-75 CNS, in the experiment on NCI-H460 lung, in the experiment on TK-10 renal and with HT29 colon was over 100 µM in each case. Also, the TGI in the experiment on OVCAR-4 ovarian is over 100 µM.

Consider `Cc1ccc(S(=O)(=O)N/N=C/c2oc(-c3ccccc3Cl)c(-c3ccccc3Cl)c2[N+](=O)[O-])cc1`, for which the TGI was 73.3 µM in the experiment on IGROV1 ovarian; over 100 µM in the experiment with SF-295 CNS; over 100 µM in the experiment with M14 melanoma; over 100 µM in the experiment on OVCAR-8 ovarian; 30.3 µM in the experiment on RPMI-8226 leukemia; 66.6 µM in the experiment with SN12C renal. Also, the TGI in the experiment on NCI-H23 lung was 29.3 µM; in the experiment with SNB-19 CNS, 64 µM; with NCI-H460 lung it was 29.9 µM; in the experiment with TK-10 renal, over 100 µM; with HT29 colon it was over 100 µM; in the experiment with OVCAR-4 ovarian it was over 100 µM.

As to `O=c1[nH]c(=O)n(C2OC(CO)C(O)C2O)cc1OCCc1ccccc1` (stereo not drawn), the TGI with IGROV1 ovarian, in the experiment with SF-295 CNS, with PC-3 prostate, in the experiment on M14 melanoma, in the experiment on OVCAR-8 ovarian and in the experiment with SN12C renal was over 100 µM each time. Moreover, the TGI in the experiment on NCI-H23 lung, in the experiment with SNB-19 CNS, with NCI-H460 lung, with TK-10 renal, with HT29 colon and in the experiment with OVCAR-4 ovarian was over 100 µM in each case.

`NC(CCCCN=Cc1nc(-c2ccccc2)oc1O)C(=O)O` (stereo not drawn): the TGI in the experiment on IGROV1 ovarian, with SF-295 CNS, with M14 melanoma, with OVCAR-8 ovarian, in the experiment on RPMI-8226 leukemia and in the experiment with SN12C renal was over 100 µM throughout. Also, the TGI with NCI-H23 lung, with SNB-19 CNS, in the experiment with SNB-75 CNS, in the experiment on NCI-H460 lung, in the experiment on TK-10 renal and in the experiment with HT29 colon was over 100 µM throughout. In the experiment on OVCAR-4 ovarian, this compound showed a TGI of over 100 µM.

As to `O=C1c2ccccc2C(=O)C2C3c4ccccc4C(c4ccccc43)C12` (stereo not drawn), the TGI with IGROV1 ovarian was 78.3 µM; in the experiment with SF-295 CNS it was 31.5 µM; with M14 melanoma, over 100 µM; in the experiment with OVCAR-8 ovarian it was 42.3 µM; with RPMI-8226 leukemia, 25.7 µM; with SN12C renal, 61.5 µM. The TGI in the experiment on NCI-H23 lung is over 100 µM; in the experiment with SNB-19 CNS, over 100 µM; with SNB-75 CNS it was 42.7 µM; in the experiment on NCI-H460 lung, over 100 µM; with TK-10 renal it was 63.3 µM; in the experiment on HT29 colon, 79.4 µM.

For `Nc1ccc(C(=O)NN2C(=O)C(Cl)C2c2ccc([N+](=O)[O-])cc2)cc1` (stereo not drawn), the TGI in the experiment on IGROV1 ovarian amounted to 16.6 µM; with SF-295 CNS, 28.3 µM; in the experiment with M14 melanoma, 26.5 µM; with OVCAR-8 ovarian it was 56 µM; in the experiment on RPMI-8226 leukemia, 42.8 µM; with SN12C renal, 30 µM. Also, the TGI in the experiment on NCI-H23 lung came out at 35.6 µM; in the experiment on SNB-19 CNS it was 26 µM; in the experiment with SNB-75 CNS it was 24.5 µM; in the experiment with NCI-H460 lung, 22.1 µM; in the experiment with TK-10 renal, 33.5 µM; with HT29 colon, 32.6 µM. The TGI in the experiment on OVCAR-4 ovarian came out at 26.4 µM.

Turning to `Cc1nc(N)c(N2CCN(Cc3ccccc3)CC2)c(=O)[nH]1`, the TGI with SF-295 CNS, in the experiment with PC-3 prostate, in the experiment on M14 melanoma, in the experiment with OVCAR-8 ovarian, with RPMI-8226 leukemia and with SN12C renal was over 100 µM each time. Also, the TGI in the experiment on NCI-H23 lung, with SNB-19 CNS, in the experiment with NCI-H460 lung, in the experiment with TK-10 renal and with HT29 colon was over 100 µM in each case.

`CCCC(=O)/C=C/S/C=C/C(=O)CCC`: the TGI in the experiment with IGROV1 ovarian came out at 47.9 µM; in the experiment on SF-295 CNS, 66.3 µM; in the experiment with M14 melanoma it was 9 µM; in the experiment with OVCAR-8 ovarian it was 5.46 µM; with SN12C renal, 28 µM; with NCI-H23 lung it was 7.7 µM. Moreover, the TGI with SNB-19 CNS was 72.3 µM; in the experiment on SNB-75 CNS, 83.6 µM; in the experiment on NCI-H460 lung, over 100 µM; with TK-10 renal, 14.5 µM; in the experiment with HT29 colon, over 100 µM; in the experiment with OVCAR-4 ovarian, 43.2 µM.

For `CC(C)C(Sc1nc(-c2ccccc2)c(-c2ccccc2)[nH]1)C(=O)N/N=C/c1ccc([N+](=O)[O-])cc1` (stereo not drawn), the TGI in the experiment on IGROV1 ovarian is 42.2 µM; with SF-295 CNS it was 33.9 µM; with M14 melanoma, 21.6 µM; with OVCAR-8 ovarian it was over 100 µM; in the experiment with RPMI-8226 leukemia, 47.6 µM; in the experiment on SN12C renal, 25.9 µM. The TGI in the experiment on NCI-H23 lung is 55.6 µM; in the experiment on SNB-19 CNS it was 41.7 µM; in the experiment with SNB-75 CNS, 42.3 µM; in the experiment on NCI-H460 lung it was 34.1 µM; in the experiment on TK-10 renal it was over 100 µM; with HT29 colon, 23.2 µM. Also, in the experiment with OVCAR-4 ovarian, the TGI amounted to 80.5 µM.

As for `O=C1SC(c2ccccc2)(c2ccccc2)c2ccccc21`, the TGI in the experiment with IGROV1 ovarian, in the experiment with SF-295 CNS, in the experiment on M14 melanoma, in the experiment with OVCAR-8 ovarian, with RPMI-8226 leukemia and in the experiment with SN12C renal was over 100 µM in each case. The TGI in the experiment on NCI-H23 lung, in the experiment on SNB-19 CNS, in the experiment with SNB-75 CNS, in the experiment with NCI-H460 lung, in the experiment with TK-10 renal and in the experiment with HT29 colon was over 100 µM in each case. Further, in the experiment on OVCAR-4 ovarian, the TGI is over 100 µM.

Take `Cc1nc2c(n1CCC(C)C)C(=O)c1ccccc1C2=O`: the TGI was 58.9 µM in the experiment on IGROV1 ovarian; 67.3 µM with SF-295 CNS; 38 µM in the experiment on M14 melanoma; over 100 µM in the experiment on OVCAR-8 ovarian; 64.3 µM with SN12C renal; 44.9 µM in the experiment with NCI-H23 lung. Further, the TGI was over 100 µM in the experiment with SNB-19 CNS; 63 µM with SNB-75 CNS; 21.1 µM in the experiment with NCI-H460 lung; over 100 µM in the experiment with TK-10 renal; over 100 µM in the experiment with HT29 colon; over 100 µM in the experiment with OVCAR-4 ovarian.

On to `NC(CCCNc1cccc(O)c1)C(=O)O` (stereo not drawn), for which the TGI in the experiment with SF-295 CNS, with M14 melanoma, in the experiment with OVCAR-8 ovarian, in the experiment with RPMI-8226 leukemia, with SN12C renal and in the experiment on SNB-19 CNS was over 100 µM throughout. Besides, the TGI in the experiment on SNB-75 CNS, with NCI-H460 lung, in the experiment on TK-10 renal, in the experiment with HT29 colon and with OVCAR-4 ovarian was over 100 µM in each case.

Take `COc1ccc(CC2NCCc3cc(OC)c(OC)cc32)cc1` (stereo not drawn): the TGI with IGROV1 ovarian, in the experiment on SF-295 CNS, in the experiment on M14 melanoma, with OVCAR-8 ovarian, with RPMI-8226 leukemia and in the experiment with SN12C renal was over 100 µM each time. For the same compound, the TGI in the experiment with NCI-H23 lung, in the experiment on SNB-19 CNS, in the experiment on SNB-75 CNS, in the experiment with NCI-H460 lung, in the experiment with TK-10 renal and in the experiment with HT29 colon was over 100 µM throughout. The compound also displayed a TGI with OVCAR-4 ovarian of over 100 µM.
